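Method: 48-hour compound exposure of cells in 96-well plates, five concentrations, linear interpolation of endpoints. At the GI50, growth is halved.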 Calls of active or inactive are those of the source. Rule as the data show it: active = GI50 up to about 1.1 µM and inactive = higher.

Experiment in all cases: NCI tumour cell line growth inhibition, 48 h
The test system of test [1] is NCI-H23.
For test [2], the system named is K562.
Test [3] has as its system RPMI-8226.
For test [4], the system named is HCT-116.
Test [5] deals with COLO 205.
The test system of test [6] is UACC-62.
In test [7] the test system is HOP-62.
The test system of test [8] is HL-60.
The subject of test [9] is MDA-MB-435.
For test [10], the system named is BT-549.
The test system of test [11] is M14.
Test [12] relates to CCRF-CEM.
In test [13] the test system is SF-268.
Test [14] concerns IGROV-1.
The subject of test [15] is MOLT-4.
Test [16] relates to ACHN.
In test [17] the test system is SR.
Test [18] deals with SK-MEL-5.
Test [19] has as its system PC-3.
Test [20] concerns NCI-H460.

Take `C=C(C)CNCC(=C)C.Oc1c(Cl)c(Cl)c(Cl)c(Cl)c1Cl`: the GI50 is 22.3 µM (inactive) in test [1]; 32.4 µM (inactive) in [2]; 20.8 µM (inactive) in test [3]; 16.4 µM (inactive) in test [4]; 22.7 µM (inactive) in [5]; 18.7 µM (inactive) in [6]. Also, the GI50 in [7] was 22 µM (inactive); in test [8] it was 3.15 µM (inactive); in [9], 23.7 µM (inactive); in test [10], 25.4 µM (inactive); in test [11] it was 26.7 µM (inactive); in [12], 26.4 µM (inactive). Moreover, the GI50 in test [13] is 33.9 µM (inactive); in test [14], 22.1 µM (inactive); in [15], 20.1 µM (inactive); in test [16], 21.6 µM (inactive); in test [17], 26.6 µM (inactive); in test [18], 16.4 µM (inactive). Moreover, the GI50 was 22.8 µM (inactive) in test [19] and > 100 µM (inactive) in test [20].
Regarding `COc1cc2c(cc1OC)-c1cc3cc(OC)c(OC)cc3c(=O)n1CC2`, the GI50 in test [1] was 46.5 µM (inactive); in test [2] it was 10.4 µM (inactive); in test [3] it was 3.16 µM (inactive); in test [4] it was 16.3 µM (inactive); in test [5] it was 26.5 µM (inactive); in test [6], 5.35 µM (inactive). The GI50 in [7] was 6.5 µM (inactive); in test [8], 17.7 µM (inactive); in test [9] it was 31.6 µM (inactive); in test [10], 37.3 µM (inactive); in [11] it was 27 µM (inactive); in test [12] it was 3.21 µM (inactive). Besides, the GI50 was 26.5 µM (inactive) in [13]; 4.91 µM (inactive) in test [14]; 3.51 µM (inactive) in test [15]; 14.4 µM (inactive) in [16]; 2.07 µM (inactive) in test [17]; 4.41 µM (inactive) in [18]. Moreover, the GI50 in test [19] is 21.2 µM (inactive); in test [20] it was > 25.6 µM (inactive).
As for `Cc1ccc(C(=O)/C=C2\Nc3ccccc3NC2=O)cc1`, the GI50 was 8.05 µM (inactive) in test [1]; > 100 µM (inactive) in test [2]; 11.1 µM (inactive) in test [3]; 2.17 µM (inactive) in [4]; > 100 µM (inactive) in test [5]; 2.26 µM (inactive) in [6]. Besides, the GI50 was 2.04 µM (inactive) in [7]; > 100 µM (inactive) in test [8]; 10.9 µM (inactive) in [9]; 22.2 µM (inactive) in test [10]; 9.27 µM (inactive) in test [11]; 99.1 µM (inactive) in test [12]. Besides, the GI50 in test [13] is 5.96 µM (inactive); in test [14], 1.07 µM (active); in test [15], > 100 µM (inactive); in [16], 3.4 µM (inactive); in [17], 15.5 µM (inactive); in [18], 10.4 µM (inactive). Also, the values for the GI50 in [19] and in test [20] were 4.84 µM (inactive) and 6.43 µM (inactive), respectively.
As to `CC(C)C1CSC2N1C(=O)C2(OCc1ccccc1)C1CC1` (stereo not drawn), the GI50 in [1] is > 100 µM (inactive); in test [2], 67.8 µM (inactive); in test [3], 89.1 µM (inactive); in test [4], > 100 µM (inactive); in [5], > 100 µM (inactive); in test [6], > 100 µM (inactive). Besides, the GI50 in [7] is > 100 µM (inactive); in test [8], 73.6 µM (inactive); in test [9] it was > 100 µM (inactive); in test [10] it was > 100 µM (inactive); in test [11] it was > 100 µM (inactive); in test [12] it was > 100 µM (inactive). Also, the GI50 is > 100 µM (inactive) in [13]; > 100 µM (inactive) in test [14]; 97.1 µM (inactive) in [15]; > 100 µM (inactive) in test [16]; > 100 µM (inactive) in [17]; > 100 µM (inactive) in test [18]. Also, the GI50 in test [19] was 69 µM (inactive); in test [20] it was > 100 µM (inactive).
In the case of `COC(=O)NC(Nc1ccc(C)cc1)(C(F)(F)F)C(F)(F)F`, the GI50 in test [1], in [2], in test [3], in [4], in [5] and in test [6] was > 100 µM (inactive) throughout. Also, the GI50 in test [7], in [8], in [9], in test [10], in [11] and in [12] was > 100 µM (inactive) throughout. The GI50 in test [13] was > 100 µM (inactive); in [14] it was > 100 µM (inactive); in test [15], > 100 µM (inactive); in [16] it was > 100 µM (inactive); in test [17], 61.2 µM (inactive); in test [18], > 100 µM (inactive). Further, the GI50 in test [19] and in test [20] was > 100 µM (inactive) in each case.
For `CCc1n[nH]c(=O)n1-c1ccncc1`, the GI50 in [1], in test [2], in [3], in test [4], in test [5] and in test [7] was > 100 µM (inactive) throughout. The GI50 in test [8], in test [9], in test [10], in test [11], in test [12] and in test [13] was > 100 µM (inactive) each time. In addition, the GI50 in test [14], in test [15], in test [16], in [17], in [18] and in [19] was > 100 µM (inactive) each time. For the same compound, in test [20], the GI50 was > 100 µM (inactive).
As to `CC1(C)C/N=C/C(C)(OCc2ccccc2)C(=O)NC(C)(C)C/N=C/C(C)(OCc2ccccc2)C(=O)N1` (stereo not drawn), the GI50 in [1], in test [2], in [3], in test [4], in test [6] and in test [7] was > 10 µM (inactive) each time. Besides, the GI50 in test [8], in [9], in [10], in [11], in test [12] and in test [13] was > 10 µM (inactive) in each case. For the same compound, the GI50 in test [14], in test [15], in test [16], in test [17], in [18] and in test [19] was > 10 µM (inactive) in each case. In test [20], the GI50 was > 10 µM (inactive).
`O=C1C(Cl)C(c2cc3cc(Br)ccc3nc2Cl)N1c1ccc(F)c(Cl)c1` (stereo not drawn): the GI50 in [1] was 3.83 µM (inactive); in test [2], 3.07 µM (inactive); in [3] it was 1.36 µM (inactive); in [4] it was 7.94 µM (inactive); in test [5], 6.62 µM (inactive); in test [6], 9.12 µM (inactive). Further, the GI50 in [7] is 1.76 µM (inactive); in test [8] it was 2.47 µM (inactive); in test [9], 5.64 µM (inactive); in [10], 7.52 µM (inactive); in test [11] it was 9.42 µM (inactive); in test [12] it was 0.418 µM (active). Besides, the GI50 in test [13] is 2.99 µM (inactive); in test [14], 0.957 µM (active); in [15], 0.594 µM (active); in [16] it was 8.53 µM (inactive); in test [17], 1.03 µM (active); in [18] it was 9.02 µM (inactive). Moreover, the GI50 in test [19] is 3.59 µM (inactive); in test [20] it was 11.7 µM (inactive).
On to `O=C(c1ccc(Br)cc1)n1c2ccc(Br)cc2c2nc3ccccc3nc21`, for which the GI50 in [1], in test [2], in test [3], in test [4], in test [5] and in test [6] was > 100 µM (inactive) throughout. For the same compound, the GI50 is > 100 µM (inactive) in test [7]; 83.6 µM (inactive) in [8]; > 100 µM (inactive) in [9]; > 100 µM (inactive) in test [10]; > 100 µM (inactive) in [11]; > 100 µM (inactive) in [12]. Moreover, the GI50 in test [13] was > 100 µM (inactive); in test [14], > 100 µM (inactive); in test [15], 43.9 µM (inactive); in test [16], > 100 µM (inactive); in test [17], 83.2 µM (inactive); in [18], > 100 µM (inactive). The GI50 in [19] and in test [20] was > 100 µM (inactive) throughout.
For `O=C(O)CO/N=C1/C(=C2/C(=O)Nc3ccccc32)Nc2ccccc21`, the GI50 in [1] was 31.6 µM (inactive); in test [2], 79.8 µM (inactive); in test [3], > 100 µM (inactive); in [4], 39.6 µM (inactive); in test [5] it was 57.5 µM (inactive); in test [6] it was 38.4 µM (inactive). Further, the GI50 in test [7] was 86.3 µM (inactive); in test [8], 64.4 µM (inactive); in test [9], 37.9 µM (inactive); in [10], 51.9 µM (inactive); in test [11] it was 41.1 µM (inactive); in test [12], 43.1 µM (inactive). Besides, the GI50 in [13] was 35.7 µM (inactive); in test [14], 22.9 µM (inactive); in [15], 41.4 µM (inactive); in test [16], > 100 µM (inactive); in test [17], 39.5 µM (inactive); in test [18], 24.1 µM (inactive). Also, the figures for the GI50 in test [19] and in test [20] were 33.9 µM (inactive) and 72.8 µM (inactive), respectively.
